Results published in patent publication US6818640B1, “2-imino-1,3-thiazine derivatives” (Shionogi & Co., Ltd., priority 1999, dated 2004).
Read-outs that look alike come from different tables or passages of the source.

Columns and labels:
[1] = molecular target: T1, human CB2R (Homo sapiens, UniProt P34972); experiment: Human CB2 receptor (CB2R) binding inhibition, [3H]CP55940, membranes of CB2R-expressing CHO cells
T1 construct: The coding region of human CB2R cDNA; expressed in transfected cells
Procedure: The prepared vector was transfected into Chinese Hamster Ovary (CHO) cells with LipofectAMINE reagent (Gibco BRL) according to the manufacture's protocol, and the stable CB2R-expressing clones were selected.
(§1) The crude membrane fractions were then prepared from the CB2R-expressing CHO cells. Receptor binding assay was performed by incubating the membranes with each test compound and [^3H]CP55940 (at a final concentration of 0.5 nM: NEN Life Science Products) in the assay buffer (50 mM Tris-HCl, 1 mM EDTA, 3 mM MgCl2, pH 7.4) containing 0.5% bovine serum albumin (BSA) for 2 hr at 25° C. The incubation mixture was filtered through 1% polyethylenimine (PEI)-treated GF/C glass filter and washed with 50 mM Tris-HCl (pH 7.4) containing 0.1% BSA. The radioactivity was then counted with a liquid scintillation counter.
(§2) For the receptor binding assay of human CB1 receptor (CB1R), the stable CB1R-expressing CHO cells were prepared as described above, and the binding assay was performed with their membrane fractions. As a consequence of these studies, the Ki values of each test compound for both cannabinoid receptors were determined, which were presented in Table 89.

[2] = molecular target: T1, human CB2R; experiment: CB2R-mediated suppression of forskolin-stimulated cAMP synthesis (agonistic activity), CHO cells expressing human CB2R; format: cell-based
Procedure: After the incubation, 4 μM forskolin (Sigma) was added and the cells were incubated for 20 min at 37° C. The reaction was stopped by the addition of 1N HCl and the amount of cAMP in the cell supernatant was measured using an EIA kit (Amersham Pharmacia Biotech) according to the manufacture's protocol.

[3] = tested on: SRBC-induced DTH reaction; experiment: Sheep red blood cell (SRBC)-induced delayed type hypersensitive (DTH) reaction, foot pad swelling; format: in vivo; conditions: female ddY mice, measured after 24 hrs
Procedure: Female ddY mice (7 weeks old) were used for the sheep red blood cell (SRBC)-induced delayed type hypersensitive (DTH) reaction.
Cannabinoid receptor agonist, I-6, I-60, I-77 and I-118 were suspended in 0.6% arabic gum solution. Mice were sensitized by the intradermal injection of 10^7 cells of SRBC (40 μl/foot) into the left hind foot pad. After 5 days, DTH reaction was induced by the intradermal injection of 10^8 cells of SRBC in the right hind foot pad. Test compounds were administerd p.o. (10 ml/kg) 1 hr before and 5 hr after the induction of DTH reaction. After 24 hrs of the injection of SRBC, the left and right foot pad volumes were measured by the water displacement method. The foot pad swelling was calculated as the differences in the volumes between the right and left hind foot pad, and used as an index of the DTH reaction.
Data are expressed as the inhibition percentage of each compound. Statistical analysis was performed with Welch's t-test, in which the value of P<0.05 is considered as a significant difference.

[4] = molecular target: T2, human CB1 receptor (CB1R) (Homo sapiens, UniProt P21554); experiment: Receptor binding assay of human CB1 receptor (CB1R), membranes of CB1R-expressing CHO cells
T2 construct: expressed in transfected cells
Procedure: as §1, §2

[5] = dose 30 mg/kg p.o. 1 hr before and 5 hr after induction

T2 sequence (P21554 whole entry): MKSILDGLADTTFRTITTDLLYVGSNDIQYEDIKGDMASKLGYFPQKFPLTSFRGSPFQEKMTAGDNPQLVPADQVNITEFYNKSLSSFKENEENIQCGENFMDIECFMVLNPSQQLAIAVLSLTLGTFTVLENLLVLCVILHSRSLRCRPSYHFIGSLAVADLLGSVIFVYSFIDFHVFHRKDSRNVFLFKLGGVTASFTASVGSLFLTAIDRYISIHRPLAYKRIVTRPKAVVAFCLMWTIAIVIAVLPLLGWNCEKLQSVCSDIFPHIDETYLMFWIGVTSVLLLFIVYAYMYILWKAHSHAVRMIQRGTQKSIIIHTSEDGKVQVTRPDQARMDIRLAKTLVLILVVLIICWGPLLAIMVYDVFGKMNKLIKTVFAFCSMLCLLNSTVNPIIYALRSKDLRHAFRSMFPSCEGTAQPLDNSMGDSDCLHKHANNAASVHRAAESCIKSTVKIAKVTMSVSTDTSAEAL
T1 sequence (P34972 whole entry): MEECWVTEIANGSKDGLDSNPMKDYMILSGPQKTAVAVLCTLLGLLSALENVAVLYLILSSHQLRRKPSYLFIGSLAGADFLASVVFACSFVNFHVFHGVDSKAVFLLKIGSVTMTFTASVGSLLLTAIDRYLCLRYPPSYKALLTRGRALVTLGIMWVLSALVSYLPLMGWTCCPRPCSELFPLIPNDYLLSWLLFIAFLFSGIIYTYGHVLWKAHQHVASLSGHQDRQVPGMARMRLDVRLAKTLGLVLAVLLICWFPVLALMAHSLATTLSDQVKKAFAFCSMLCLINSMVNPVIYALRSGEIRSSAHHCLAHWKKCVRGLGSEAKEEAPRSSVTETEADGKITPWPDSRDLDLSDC

SMILES | Ki [1] [µM] | Ki [4] [µM] | also measured
CCOc1ccc(/N=C2\SCC(C)(C)CN2C(=O)OC)cc1OCC | – | – | melting point: 75 to 76 °C
CCSC(=O)N1CCSC1=Nc1ccccc1C(C)C [Compound I-6, 3-(ethylthiocarbonyl)-2-(2-isopropylphenyl)imino-1,3-thiazolidine] | 0.009 | – | IC50 ([2]; CHO cells expressing human CB2R, 4 μM forskolin, read-out: IC50 (inhibition of forskolin-stimulated cAMP synthesis)): 0.0027 µM; Inhibition percentage (foot pad swelling, DTH reaction) ([3]; dose 40 mg/kg p.o. 1 hr before and 5 hr after induction): 45.2%; melting point: 79 to 81 °C
CSC(=S)N1CC(C)(C)CSC1=Nc1ccccc1C(C)C [Compound I-5, 2-(2-isopropylphenyl)imino-3-(methylthio)thiocarbonyl-5,5-dimethyl-1,3-thiazine] | 0.061 | > 5 | IC50 [2]: 0.0065 µM; melting point: 77 to 79 °C
CCSC(=O)N1CC(C)(C)CSC1=Nc1ccccc1C(C)CC (stereo not drawn) [Compound I-23] | 0.029 | > 5 | IC50 [2]: 0.0026 µM
CSC(=O)N1CC(C)(C)CSC1=Nc1ccccc1C(C)C [Compound I-50] | 0.039 | > 5 | –
COc1ccc(N=C2SCC(C)(C)CN2C(=S)SC)cc1OC [Compound I-77] | 0.053 | – | Inhibition percentage (foot pad swelling, DTH reaction) [3, 5]: 33.8%
CCc1ccccc1N=C1SCC(C)(C)CN1C(=S)SC [Compound I-56] | 0.054 | – | –
CSC(=S)N1CC(C)(C)CSC1=Nc1cccc(C(C)C)c1 [Compound I-69] | 0.033 | – | –
CCC(C)c1ccccc1N=C1SCC(C)(C)CN1C(=S)SC (stereo not drawn) [Compound I-57] | 0.006 | 4.13 | IC50 [2]: 0.0055 µM
CCC(C)c1ccccc1N=C1SCC(C)(C)CN1C(=O)SC (stereo not drawn) [Compound I-51] | 0.023 | – | IC50 [2]: 0.0028 µM
CSC(=S)N1CC(C)(C)CSC1=Nc1ccc(C)c(C)c1 [Compound I-74] | 0.048 | – | –
CCOC(=O)N1CC(C)(C)CSC1=Nc1ccccc1C(C)C | – | – | melting point: 84 to 86 °C
COc1ccccc1N=C1SCC(C)(C)CN1C(=S)SC [Compound I-60] | 0.018 | 2.1 | Inhibition percentage (foot pad swelling, DTH reaction) [3, 5]: 31.1%
CCSC(=S)N1CC(C)(C)CSC1=Nc1ccccc1C(C)CC (stereo not drawn) [Compound I-85] | 0.025 | – | –
CSC(=O)N1CC(C)(C)CSC1=Nc1cccc(C(C)C)c1 [Compound I-52] | 0.035 | – | –
CSC(=S)N1CC(C)(C)CSC1=Nc1ccccc1SC [Compound I-62] | 0.044 | – | –
CCSC(=S)N1CC(C)(C)CSC1=Nc1ccccc1C(C)C [Compound I-84] | 0.035 | > 5 | –
